Source: patent US20170226507A1, “COORDINATE CONTROL OF PATHOGENIC SIGNALING BY THE MIR-130/301 FAMILY IN PULMONARY HYPERTENSION AND FIBROPROLIFERATIVE DISEASES” (The Brigham and Women's Hospital, Inc., priority 2014, published 2017)

Key:
Type in all cases: cell-based, human
PASMCs [1] = experiment: Gene/miRNA expression in transfected or drug-treated PASMCs (immunoblotting, RT-qPCR)
Excerpt: (§1) Pre-miRNA oligonucleotides (pre-miR-130a, pre-miR-204, pre-miR-424, and pre-miR-503 and negative control pre-miR-NC1 and premiR-NC2, Life Technologies), anti-miRNAs oligonucleotides (anti-miR-130a and anti-miR-NC, ThermoScientific), tiny LNA oligonucleotides (tiny-130: 5′-[…]-3′ (SEQ ID NO: 3), and tiny-NC 5′-[…]-3′ (SEQ ID NO: 51), Exiqon), siRNAs (PPARγ and scrambled control, Santa Cruz Biotechnology; HIF-1α, HIF-2α, and scrambled control, Life Technologies) were commercially purchased. PAECs and PASMCs were plated and transfected 24 h later at 70-80% confluence using pre-miRNA (5 nM), anti-miRNA (20 nM), tiny-LNA (20 nM) or siRNA (25 nM) with Lipofectamine 2000 reagent (Life Technologies), according to the manufacturers' instructions.
(§2) Primary human pulmonary arterial endothelial cells (PAECs) were purchased and propagated in EGM-2 cell culture media (Lonza). Experiments were performed at passages 3 to 6. Primary human pulmonary arterial smooth muscle cells (PASMCs) were purchased and propagated in SmGM-2 cell culture media (Lonza). Experiments were performed at passages 3 to 9. HEK293T cells (American Type Culture Collection) were used and cultivated in DMEM containing 10% fetal bovine serum (FBS). Cells were cultured at 37° C. in a humidified 5% CO2 atmosphere. A modular hypoxia chamber at 0.2% oxygen, 94.8% nitrogen and 5% carbon dioxide was used during 24 h for hypoxic conditions. Cultured cells were exposed to recombinant human IL-1α at 10 ng·mL-1 (Peprotech). Recombinant human IL-6 (Peprotech) was used at 100 ng·mL-1. Rosiglitazone (Sigma) was used at 10 μM.
(§3) Mature miRNA expression was evaluated using TaqMan MicroRNA Assays (Life Technologies/Applied Biosystems) and the Applied Biosystems 7900HT Fast Real Time PCR device (Life Technologies/Applied Biosystems). Expression levels were normalized to RNU48 or snoR55 for human or mouse experiments, respectively, and calculated using the comparative Ct method (2^−ΔΔCt) as we previously described (1).
(§4) Messenger RNAs were reverse transcribed using the Multiscript RT kit (Life Technologies) to generate cDNA. cDNA was amplified via fluorescently labeled Taqman primer sets using an Applied Biosystems 7900HT Fast Real Time PCR device, as we previously described (1). Fold-change of RNA species was calculated using the formula (2^−ΔΔCt), normalized to actin expression.
(§5) Cells were lysed in RIPA buffer (Santa Cruz Biotechnology) and the protein concentration determined using a Bradford assay (Biorad). Protein lysate ([…]) were resolved by SDS-PAGE and transferred onto a PVDF membrane (Biorad). Membranes were blocked in 5% non-fat milk in TN buffer (50 mM Tris-HCl pH 7.4, 150 mM NaCl) and incubated in the presence of the primary and then secondary antibodies. After washing in TN buffer containing 0.1% Tween, immunoreactive bands were visualized with the ECL system (Amersham Biosciences). […] Primary antibodies for STAT3 (#9139) and P-STAT3 (Tyr-705; #9145) were purchased from Cell Signaling. Primary antibodies against actin (ab 3280), α-smooth-muscle-actin (ab 32575), CD31 (ab28364), and PCNA (ab 29) were obtained from Abcam. Appropriate secondary antibodies (anti-rabbit and anti-mouse) coupled to HRP were used (Santa Cruz Biotechnology).

PAECs [2] = experiment: Proliferation of PAECs (cell counting, BrdU incorporation, PCNA)
Excerpt: as §1
(§6) Exponentially growing cells were transfected, collected at the indicated times and counted.
as §5

endothelin-1 = experiment: Quantification of endothelin-1 by ELISA in conditioned media of PAECs; conditions: mimic: normoxia and hypoxia, inhibitors: hypoxia 0.2% O2
Experimental: Twenty-four hours after transfection PAECs were washed in PBS, and medium was replaced by media without serum. Twenty-four hour later conditioned media from PAEC transfected as indicated were collected and endothelin-1 was measured by ELISA kit (Enzo biosciences) according to the manufacturer's protocol. Human plasma sample (see below) and mouse plasma were also tested for endothelin-1 level by ELISA.

PASMCs [3] = experiment: Proliferation of PASMCs (cell counting, BrdU incorporation, PCNA)
Excerpt: as §1, §6, §5

PASMCs [4] = experiment: Caspase 3/7 assay, PASMCs
Experimental: (§7) Caspase 3,7 activity was quantified using the Caspase-Glo 3/7 Assay (Promega), according to manufacturer's instructions. Briefly, cells were plated in triplicate in 96-well plates and transfected with the appropriate oligonucleotide. Forty-eight hours after transfection, cells were cultured in the presence or absence of serum for twenty-four hours. Cells were then incubated for 1 h with the caspase substrates, and luminescence was quantified.

PAECs [5] = experiment: Gene/miRNA expression in transfected or drug-treated PAECs (immunoblotting, RT-qPCR)
Excerpt: as §1, §2, §3, §4, §5
Pre-miRNA oligonucleotides (pre-miR-130a and negative control pre-miR-NC1 and premiR-NC2), anti-miRNAs oligonucleotides (anti-miR-130a and anti-miR-NC), and custom designed tiny LNA oligonucleotides (tiny-130: 5′-[…]-3′ (SEQ ID NO: 3), and tiny-NC 5′-[…]-3′ (SEQ ID NO: 51)) were purchased from Life Technologies/Ambion, ThermoScientific/Dharmacon, and Exiqon, respectively. siRNAs for PPARγ and scrambled control were purchased from Santa Cruz Biotechnology. PAEC and PASMC were plated and transfected 24 h later at 70-80% confluence using pre-miRNA (5 nM), anti-miRNA (20 nM), tiny-LNA (20 nM) or siRNA (25 nM) and Lipofectamine 2000 reagent (Life Technologies), according to the manufacturers' instructions. […]

PAECs [6] = experiment: Caspase 3/7 assay, PAECs
Experimental: as §7

[7] = normoxia or hypoxia, compared with anti-miR-130a
[8] = tiny-LNA-130: stiffness-mediated up-regulation
[9] = transcripts 48 h after transfection
[10] = exponentially growing, BrdU pulse 1 h
[11] = immunoblot 48 hours after transfection

**Q.** For “tiny-LNA-130: fully LNA-modified tiny LNA oligonucleotide 5′-ATTGCACT-3′ (SEQ ID NO: 3) complementary to the seed region of the miR-130/301 family (all LNA, backbone and methylation of C not given here)”, which “downstream gene/subordinate miRNA alterations (PPARγ, STAT3, P-STAT3, miR-204)” value (PASMCs [1]; [7]) is on record?
**A.** reversed such downstream gene/subordinate miRNA alterations to a greater extent than inhibition of miR-130a alone

**Q.** What about the “collagen, CTGF, and LOX” value (PASMCs [1]; [8]) of the same substance?
**A.** reversed

**Q.** And the CCND1 expression (PASMCs [1]; transcripts)?
**A.** decreased

**Q.** And the “CDKN1A, CDKN1B and CDKN2A expression” value (PASMCs [1]; transcripts)?
**A.** increased

**Q.** What about the “NFATC2 and PIM1 expression” value (PASMCs [1]; [9]) of the same substance?
**A.** decreased

**Q.** And the number of cells (PAECs [2]; counted each day during 3 days)?
**A.** greater decrease in the number of cells compared with anti-miR-130a

**Q.** And the “BrdU incorporation (proliferation)” value (PAECs [2]; [10])?
**A.** greater decrease in proliferation compared with anti-miR-130a

**Q.** What about the PCNA expression (PAECs [2]; [11]) of the same substance?
**A.** more substantial decrease

**Q.** What about the “mature endothelin-1 in conditioned media” value (endothelin-1) of the same substance?
**A.** decreased endothelin-1 expression to a greater extent than inhibition of miR-130a alone

**Q.** What about the number of cells (PASMCs [3]; counted each day during 3 days) of the same substance?
**A.** greater decrease in the number of cells compared with anti-miR-130a

**Q.** What about the “BrdU incorporation (proliferation)” value (PASMCs [3]; [10]) of the same substance?
**A.** greater decrease in proliferation compared with anti-miR-130a

**Q.** What about the PCNA expression (PASMCs [3]; [11]) of the same substance?
**A.** more substantial decrease

**Q.** And the “caspase 3/7 activity” value (PASMCs [4]; 24 h serum deprivation)?
**A.** no significant modulation

**Q.** What about the “caspase 3/7 activity” value (PASMCs [4]; serum-replete conditions) of the same substance?
**A.** No significant modulation

**Q.** What about the PPARγ expression (PAECs [5]; immunoblotting, densitometry) of the same substance?
**A.** increased

**Q.** What about the “downstream gene/subordinate miRNA alterations (PPARγ, apelin, miR-424, miR-503, FGF2)” value (PAECs [5]; [7]) of the same substance?
**A.** reversed these downstream gene/subordinate miRNA alterations to a greater extent than inhibition of miR-130a alone

**Q.** What about the “collagen, CTGF, and LOX” value (PAECs [5]; [8]) of the same substance?
**A.** reversed

**Q.** And the CCND1 expression (PAECs [5]; [9])?
**A.** decreased

**Q.** What about the “CDKN1A, CDKN1B and CDKN2A expression” value (PAECs [5]; [9]) of the same substance?
**A.** increased

**Q.** And the “gene expression changes in VEGFA, EDN1 and NOS3” value (PAECs [5]; vs tiny-LNA-NC, transcript in hypoxia, protein in normoxia)?
**A.** reversed these gene expression changes

**Q.** What about the “caspase 3/7 activity” value (PAECs [6]; 24 h serum deprivation) of the same substance?
**A.** partially protected cells from caspase 3/7 induction

**Q.** And the “caspase 3/7 activity” value (PAECs [6]; serum-replete conditions)?
**A.** No significant modulation
